Source: US6797692B1, “Use of glutamate antagonists for the treatment of cancer” (priority 1998, dated 2004)
Entries after “also recorded” stand apart in the source; their conditions may differ.

Experiments:
[1] = tested on: human neuroblastoma cell line SK-N-AS; assay: Tumoricidal effect, necrotic cells by trypan blue staining; assay type: cell-based; details: Student's t test; for potentiation of tumoricidal effect (toxicity) of cisplatin: antagonist 10 μM plus cisplatin 10 μM; for potentiation of tumoricidal effect (toxicity) of thiotepa: antagonist 10 μM plus thiotepa 10 μM; for potentiation of tumoricidal effect (toxicity) of vinblastin: antagonist 10 μM plus vinblastin 1 μM
Protocol: (§1) Cell lines and culture. Human neuroblastoma (SKNAS), human rhabdomyosarcoma/medulloblastoma (TE671), human brain astrocytoma (MOGGCCM), human thyroid carcinoma (FTC238), human lung carcinoma (A549), human colon adenocarcinoma (LS180) and human breast carcinoma (T47D) were obtained from European Collection of Cell Cultures (ECACC), Center for Applied Microbiology & Research, Salisbury, UK. SKNAS, TE671, T47D, LS180 were grown in 1:1 mixture of Dulbecco's Modified Eagle's Medium (DMEM; D 6421, Sigma, Ca^2+-concentration 1.05 mM) and Nutrient Mixture F-12 Ham (Ham's F-12; Sigma) supplemented with 10% Foetal Bovine Serum (FBS) (GIBCO). FTC238 was grown in the same culture medium suplemented with 5% FBS. MOGGCCM and A549 were grown in 2:1 mixture of DMEM (D 6046, Sigma, Ca^2+-concentration 1.8 mM):Ham's F-12 supplemented with 10% FBS. Cultures were kept at 37° C. in a 95% air-5% CO2 atmosphere. As Ca^2+-free medium, minimum essential medium M8167 from Sigma was used.
Assessment of tumoricidal effect. Quantitation of cell death was performed at 24, 48 or 72 hrs after exposure to the agents of interest following staining of the cells with trypan blue. This stain is taken up by necrotic cells. The numbers of necrotic cells/100 counted cells served as quantitative measure for tumoricidal effect (% of tumor cell death). For each agent or combination of agents and each time point 5 wells were analysed. Comparisons between groups was performed by means of Student's t-test.
(§2) Exposure to agents. Tumor cells were exposed to the following agents and concentrations: MK 801 (10-500 μM), GYKI 52466 (10-500 μM), Cisplatin (10 μM), Vinblastin (1 μM), Thiotepa (10 μM) alone or in combination with MK 801 (10 μM), GYKI 52466 (10 μM) or NBQX (10 μM).
Data represent the mean±SEM of necrotic cells visualized by trypan blue staining (n=5/group). The potentiating effect of all three glutamate receptor antagonists was most prominent after an exposure time of 72 h. *P<0.05; **P<0.01; ***P<0.001, Student's t test.
Data represent the mean±SEM of necrotic cells visualized by trypan blue staining (n=5/group). The potentiating effect of the NMDA- and both AMPA antagonists is most prominent after an exposure time of 72 h. *P<0.05;**P<0.01;***P<0.001, Student's t test.
Data represent the mean±SEM of necrotic cells visualized by trypan blue staining (n=5/group). The potentiating effect of the NMDA- and both AMPA antagonists is most prominent after an exposure time of 48 hrs. *P<0.05;**P<0.01;***P<0.001, Student's t test.

[2] = tested on: human tumor cell lines (SKNAS, TE671, MOGGCCM, FTC238, A549, LS180, T47D); assay: MTT assay of cell viability (antiproliferative effect); assay type: cell-based; details: 10-500 μM over 96 hrs, linear regression
Protocol: as §1
Assessment of cell viability. The yellow tetrazolium salt MTT (3-4,5-dimethylthiazol-2-2,5-diphenyltetrazolium bromid) is metabolized by viable, metabolically active cells to purple formazan crystals. Tumor cells grown in 96 well multiplates were incubated over 4 hrs with MTT solution (Cell proliferation kit I, Boehringer Mannheim, Germany). Formazan crystals were solubilized overnight, according to the manufacturer's instructions, and the product was quantified spectrophotometrically by measuring absorbance at 570 nm wave length using a VICTOR Multilabel Counter (Wallach).
as §2
Cells were exposed to either culture medium alone (control) or dizocilpine (10-500 μM) over 96 hrs and viability was measured photometrically by means of the MTT assay. Data represent mean normalized optical densities±SEM of 6-8 measurements and were analyzed by means of linear regression. Abbreviations. SKNAS: human neuroblastoma; TE671: human rhabdomyosarcoma/medulloblastoma; MOGGCCM: human brain astrocytoma; FTC238: human thyroid carcinoma; A 549: human lung carcinoma; LS180: human colon adenocarcinoma; T47D: human breast carcinoma.
Cells were exposed to either culture medium alone (control) or GYKI52466 (10-500 μM) over 96 hrs and viability was measured photometrically by means of the MTT assay. Data represent mean normalized optical densities SEM of 68 measurements and were analyzed by means of linear regression. Abbreviations. […]

SMILES	potentiation of tumoricidal effect (toxicity) of cisplatin [1]	potentiation of tumoricidal effect (toxicity) of thiotepa [1]	potentiation of tumoricidal effect (toxicity) of vinblastin [1]	antiproliferative effect in human tumor cell lines (viability, MTT assay) [2]	antiproliferative effect in human tumor cell lines (viability, MTT assay) ([2]; listed as (+)dizocilpine)	potentiation of tumoricidal effect (toxicity) of cisplatin ([1]; listed as MK801)	potentiation of tumoricidal effect (toxicity) of thiotepa ([1]; listed as MK801)	antiproliferative effect in human tumor cell lines (viability, MTT assay) ([2]; listed as GYK152466)
NS(=O)(=O)c1cccc2c1c([N+](=O)[O-])cc1nc(O)c(O)nc12 [NBQX, 2,3-dihydroxy-6-nitro-7-sulfaoylbenzo-(F)-quinoxaline]	significantly (P<0.05-0.001) potentiated; also recorded: significantly increase toxicity	significantly (P<0.05-0.001) potentiated; also recorded: potentiate toxicity	significantly (P<0.05-0.001) potentiated; also recorded: potentiate toxicity					
C[C@]12N[C@H](Cc3ccccc31)c1ccccc12 [MK 801]	significantly (P<0.05-0.001) potentiated	significantly (P<0.05-0.001) potentiated	significantly (P<0.05-0.001) potentiated; also recorded: potentiate toxicity	significant concentration-dependent antiproliferative effect	concentration dependent antiproliferative effect	significantly increase toxicity	potentiate toxicity	
CC1=NN=C(c2ccc(N)cc2)c2cc3c(cc2C1)OCO3 [GYKI 52466]	significantly (P<0.05-0.001) potentiated; also recorded: significantly increase toxicity	significantly (P<0.05-0.001) potentiated; also recorded: potentiate toxicity	significantly (P<0.05-0.001) potentiated; also recorded: potentiate toxicity	concentration dependent antiproliferative effect				significant concentration-dependent antiproliferative effect
